Source: patent US8236818B2, “Substituted imidazopyridine derivatives as melanocortin-4 receptor antagonists” (Santhera Pharmaceuticals (Schweiz) AG, priority 2007, dated 2012)

Experiments:
melanocortin-4 receptor [1] = target: T1, melanocortin-4 receptor (Homo sapiens, UniProt P32245); assay: Membrane binding assay (fluorescence polarization, competition with fluorescence labeled NDP-alpha-MSH); conditions: read-out: hMC-4R binding assay IC50/μM
T1 construct: expressed in transfected cells; host or cells: HEK293 cells (membrane preparations)

melanocortin-4 receptor [2] = target: T1, melanocortin-4 receptor; assay: Functional assay (cAMP fluorescence polarization, membrane based, agonistic activity); type: biochemical; conditions: for Emax: 2 h, read-out: % activation functional assay; for EC50: agonistic activity, cAMP, HEK293 membrane preparations, read-out: hMC-4R functional assay EC50/μM

T1 sequence (P32245 whole entry): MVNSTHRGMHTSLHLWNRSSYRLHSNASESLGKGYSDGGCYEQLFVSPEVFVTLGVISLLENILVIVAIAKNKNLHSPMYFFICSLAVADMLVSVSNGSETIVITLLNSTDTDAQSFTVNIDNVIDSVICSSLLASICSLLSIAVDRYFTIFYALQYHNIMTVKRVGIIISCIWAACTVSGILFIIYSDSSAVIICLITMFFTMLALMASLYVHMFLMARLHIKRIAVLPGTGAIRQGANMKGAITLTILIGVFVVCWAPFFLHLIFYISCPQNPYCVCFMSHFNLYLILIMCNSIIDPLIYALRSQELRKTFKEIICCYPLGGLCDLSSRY

IC50 (melanocortin-4 receptor [1]) [µM] | Emax (melanocortin-4 receptor [2]) [%] | EC50 (melanocortin-4 receptor [2]) [µM] | Structure (SMILES)
0.1 to 1 | 0 | – | CC(C)CCN(CCC(C)C)C(=O)c1ccc2nc(-c3ccc(C(=O)N(C)C)cc3)c(CCCN3CCCC3)n2c1 [Example 63]
< 0.1 | 0 | – | CNC(=O)c1ccc(-c2nc3ccc(C(=O)N(CCC(C)C)CCC(C)C)cn3c2CCCN2CCCC2)cc1 [Example 64]
< 0.1 | 0 | – | CC(C)CCN(CCC(C)C)C(=O)c1ccc2nc(-c3ccc(N)nc3)c(CCCN3CCCC3)n2c1 [Example 65]
0.1 to 1 | 0 | – | CC(C)CCN(CCC(C)C)C(=O)c1ccc2nc(-c3ccc(Cl)nc3)c(CCCN(C)C)n2c1 [Example 66]
< 0.1 | 0 | – | CC(C)CCN(CCC(C)C)C(=O)c1ccc2nc(-c3ccc(Cl)nc3)c(CCCN3CCCC3)n2c1 [Example 67]
0.1 to 1 | 0 | – | CC(C)CCN(CCC(C)C)C(=O)c1ccc2nc(-c3ccc(=O)[nH]c3)c(CCCN(C)C)n2c1 [Example 68]
< 0.1 | 0 | – | CC(C)CCN(CCC(C)C)C(=O)c1ccc2nc(-c3ncco3)c(CCCN3CCCC3C)n2c1 (stereo not shown) [Example 69]
0.1 to 1 | 0 | – | CC(C)CCN(CCC(C)C)C(=O)c1ccc2nc(-c3ncco3)c(CCCN3CCC[C@@H]3CO)n2c1 [Example 70]
0.1 to 1 | 0 | – | CC(C)CCN(CCC(C)C)C(=O)c1ccc2nc(-c3ncco3)c(CCCN3CC[C@@H](O)C3)n2c1 [Example 71]
0.1 to 1 | 2 | – | CC(C)CCN(CCC(C)C)C(=O)c1ccc2nc(-c3ncco3)c(CCCN3CC[C@@H](F)C3)n2c1 [Example 72]
0.1 to 1 | -3 | – | CC(C)CCN(CCC(C)C)C(=O)c1ccc2nc(-c3ncco3)c(CCCN3CC(O)C3)n2c1 [Example 73]
0.1 to 1 | 1 | – | CC(C)CCN(CCC(C)C)C(=O)c1ccc2nc(-c3ncco3)c(CCCN3CCC3)n2c1 [Example 74]
< 0.1 | 1 | – | CC(C)CCN(CCC(C)C)C(=O)c1ccc2nc(-c3ncco3)c(CCCN(C)C(C)C)n2c1 [Example 75]
0.1 to 1 | 4 | – | CC(C)CCN(CCC(C)C)C(=O)c1ccc2nc(-c3ncco3)c(CCCN3CCC[C@H]3CO)n2c1 [Example 76]
< 0.1 | 4 | – | CC(C)CCN(CCC(C)C)C(=O)c1ccc2nc(-c3ncco3)c(CCCN3CCC(O)CC3)n2c1 [Example 77]
< 0.1 | 2 | – | CC(C)CCN(CCC(C)C)C(=O)c1ccc2nc(-c3ncco3)c(CCCN3CC[C@H](F)C3)n2c1 [Example 78]
< 0.1 | 11 | – | CC(C)CCN(CCC(C)C)C(=O)c1ccc2nc(-c3ccc(OCCO)nc3)c(CCCN3CCCC3)n2c1 [Example 79]
0.1 to 1 | -35 | 0.1 to 1 | CC(C)CCN(CCC(C)C)C(=O)c1ccc2nc(-c3ncco3)c(CCCN3CC[C@H](O)C3)n2c1 [Example 80]
< 0.1 | -9 | – | CC(C)CCN(CCC(C)C)C(=O)c1ccc2nc(-c3ccc(=O)n(CCO)c3)c(CCCN3CCCC3)n2c1 [Example 81]
< 0.1 | -17 | < 0.1 | COc1ccc(-c2nc3ccc(C(=O)N(CCC(C)C)CCC(C)C)cn3c2CCCN2CCCC2)cn1 [Example 82]

IC50 (melanocortin-4 receptor [1]) [µM] | Emax (melanocortin-4 receptor [2]) [%] | EC50 (melanocortin-4 receptor [2]) [µM] | Structure (SMILES)
< 0.1 | -1 | – | COc1ccc(-c2nc3ccc(C(=O)N(CCC(C)C)CCC(C)C)cn3c2CCCN(C)C)cn1 [Example 83]
< 0.1 | -8 | – | CC(C)CCN(CCC(C)C)C(=O)c1ccc2nc(-c3ncccn3)c(CCCN3CCCC3)n2c1 [Example 84]
< 0.1 | -2 | – | CC(C)CCN(CCC(C)C)C(=O)c1ccc2nc(-c3ncco3)c(CCCN3CCC[C@@H]3C)n2c1 [Example 85]
< 0.1 | -11 | – | CC(C)CCN(CCC(C)C)C(=O)c1ccc2nc(-c3ncco3)c(CCCN3CCC[C@H]3C)n2c1 [Example 86]
> 1 | 0 | – | CC(C)CCN(CCC(C)C)C(=O)c1ccc2nc(-c3cccnc3N)c(CCCN(C)C)n2c1 [Example 87]
0.1 to 1 | -2 | – | CC(C)CCN(CCC(C)C)C(=O)c1ccc2nc(-c3cc[nH]c(=O)c3)c(CCCN(C)C)n2c1 [Example 88]
< 0.1 | -25 | < 0.1 | CC(C)CCN(CCC(C)C)C(=O)c1ccc2nc(-c3cc[nH]c(=O)c3)c(CCCN3CCCC3)n2c1 [Example 89]
0.1 to 1 | -41 | > 1 | CC(C)CCN(CCC(C)C)C(=O)c1ccc2nc(-c3cccnc3N)c(CCCN3CCCC3)n2c1 [Example 90]
0.1 to 1 | -29 | 0.1 to 1 | CC(C)CCN(CCC(C)C)C(=O)c1ccc2nc(-c3ccc(=O)n(CCCO)c3)c(CCCN3CCCC3)n2c1 [Example 91]
0.1 to 1 | -31 | < 0.1 | CC(C)CCN(CCC(C)C)C(=O)c1ccc2nc(-c3ccc(OCCCO)nc3)c(CCCN3CCCC3)n2c1 [Example 92]
0.1 to 1 | 0 | – | CC(C)CCN(CCC(C)C)C(=O)c1ccc2nc(-c3ccc(=O)n(CC(C)O)c3)c(CCCN3CCCC3)n2c1 (stereo not shown) [Example 93]
> 1 | -13 | – | CC(C)CCN(CCC(C)C)C(=O)c1ccc2nc(-c3ccc(OCC(C)O)nc3)c(CCCN3CCCC3)n2c1 (stereo not shown) [Example 94]
< 0.1 | 0 | – | COCCn1cc(-c2nc3ccc(C(=O)N(CCC(C)C)CCC(C)C)cn3c2CCCN2CCCC2)ccc1=O [Example 95]
< 0.1 | 0 | – | COCCOc1ccc(-c2nc3ccc(C(=O)N(CCC(C)C)CCC(C)C)cn3c2CCCN2CCCC2)cn1 [Example 96]
< 0.1 | 1 | – | CC(=O)OCCOc1ccc(-c2nc3ccc(C(=O)N(CCC(C)C)CCC(C)C)cn3c2CCCN2CCCC2)cn1 [Example 97]
0.1 to 1 | -8 | – | CC(C)CCN(CCC(C)C)C(=O)c1ccc2nc(C3CCOCC3)c(CCCN3CCCC3)n2c1 [Example 98]
< 0.1 | 4 | – | CC(=O)OCCn1cc(-c2nc3ccc(C(=O)N(CCC(C)C)CCC(C)C)cn3c2CCCN2CCCC2)ccc1=O [Example 99]
< 0.1 | -22 | – | CC(C)CCN(CCC(C)C)C(=O)c1ccc2nc(-c3ccc(=O)[nH]c3)c(CCCN3CCCC3C)n2c1 (stereo not shown) [Example 100]
< 0.1 | -25 | – | CC(=O)OCCn1cc(-c2nc3ccc(C(=O)N(CCC(C)C)CCC(C)C)cn3c2CCCN2CCCC2C)ccc1=O (stereo not shown) [Example 101]
< 0.1 | -15 | – | CC(=O)OCCOc1ccc(-c2nc3ccc(C(=O)N(CCC(C)C)CCC(C)C)cn3c2CCCN2CCCC2C)cn1 (stereo not shown) [Example 102]

IC50 (melanocortin-4 receptor [1]) [µM] | Emax (melanocortin-4 receptor [2]) [%] | EC50 (melanocortin-4 receptor [2]) [µM] | Structure (SMILES)
< 0.1 | -20 | – | CC(C)CCN(CCC(C)C)C(=O)c1ccc2nc(-c3ccc(=O)n(CCO)c3)c(CCCN3CCCC3C)n2c1 (stereo not shown) [Example 103]
< 0.1 | -15 | – | CC(C)CCN(CCC(C)C)C(=O)c1ccc2nc(-c3ccc(OCCO)nc3)c(CCCN3CCCC3C)n2c1 (stereo not shown) [Example 104]
0.1 to 1 | -24 | – | CC(=O)OCCn1cc(-c2nc3ccc(C(=O)N(CCC4CC4)CCC4CC4)cn3c2CCCN2CCCC2)ccc1=O [Example 105]
0.1 to 1 | 0 | – | CC(=O)OCCOc1ccc(-c2nc3ccc(C(=O)N(CCC4CC4)CCC4CC4)cn3c2CCCN2CCCC2)cn1 [Example 106]
0.1 to 1 | -17 | – | O=C(c1ccc2nc(-c3ccc(=O)n(CCO)c3)c(CCCN3CCCC3)n2c1)N(CCC1CC1)CCC1CC1 [Example 107]
0.1 to 1 | -19 | – | O=C(c1ccc2nc(-c3ccc(OCCO)nc3)c(CCCN3CCCC3)n2c1)N(CCC1CC1)CCC1CC1 [Example 108]
< 0.1 | -23 | – | CC1CCCN1CCCc1c(-c2ccc(=O)[nH]c2)nc2ccc(C(=O)N(CCC3CC3)CCC3CC3)cn12 (stereo not shown) [Example 109]
0.1 to 1 | -23 | – | CC(=O)OCCn1cc(-c2nc3ccc(C(=O)N(CCC4CC4)CCC4CC4)cn3c2CCCN2CCCC2C)ccc1=O (stereo not shown) [Example 110]
0.1 to 1 | -25 | – | CC1CCCN1CCCc1c(-c2ccc(=O)n(CCO)c2)nc2ccc(C(=O)N(CCC3CC3)CCC3CC3)cn12 (stereo not shown) [Example 111]
< 0.1 | -9 | – | CC1CCCN1CCCc1c(-c2ccc(OCCO)nc2)nc2ccc(C(=O)N(CCC3CC3)CCC3CC3)cn12 (stereo not shown) [Example 112]
0.1 to 1 | 0 | – | CC(C)CCN(CCC(C)C)C(=O)c1ccc2nc(-c3ccc(C#N)cc3)c(CN3CCC(N(C)C)CC3)n2c1 [Example 113]
0.1 to 1 | 0 | – | COc1cccc(-c2nc3ccc(C(=O)N(CCC(C)C)CCC(C)C)cn3c2CN2CCC(N(C)C)CC2)c1 [Example 114]
0.1 to 1 | 0 | – | COc1cccc(-c2nc3ccc(C(=O)N(CCC(C)C)CCC(C)C)cn3c2CN2CCC(N)CC2)c1 [Example 116]
0.1 to 1 | 0 | – | CC(C)CCN(CCC(C)C)C(=O)c1ccc2nc(-c3ccc(Cl)cc3)c(CN3CCC(N)CC3)n2c1 [Example 117]
0.1 to 1 | 0 | – | CC(C)CCN(CCC(C)C)C(=O)c1ccc2nc(-c3ccc(F)cc3)c(CN3CCC(N)CC3)n2c1 [Example 118]
> 1 | 0 | – | CC(C)CCN(CCC(C)C)C(=O)c1ccc2nc(-c3cccc(Cl)c3)c(CN3CCC(N)CC3)n2c1 [Example 120]
> 1 | 0 | – | COc1cccc(-c2nc3ccc(C(=O)N(CCC(C)C)CCC(C)C)cn3c2CN2CCNCC2)c1 [Example 121]
0.1 to 1 | 0 | – | CC(C)CCN(CCC(C)C)C(=O)c1ccc2nc(-c3cccc(C#N)c3)c(CN3CCC(N)CC3)n2c1 [Example 122]
> 1 | 0 | – | COc1cccc(-c2nc3ccc(C(=O)N(CCC(C)C)CCC(C)C)cn3c2CN2CCC(N)C2)c1 (stereo not shown) [Example 123]
